Laboratory results: PubChem BioAssay AID1963444 (Molecular Pharmacology Branch, DTP, NCI, 2024)

Tested on: HSSY-II complex spheroid growth, percent test/control
Assay: Anticancer human tumor HSSY-II cell line growth inhibition [Asc];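 also: spheroids exposed to drug for 7 days before reading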
Conditions: for IC50: curve of first compound; for viability, T/C: stronger effect = lower value
Description: Multicellular complex tumor spheroid response to apoptosis pathway targeting inhibitors Alrizomadlin, Pelcitoclax, and Dasminapant in combination with a variety of drugs and investigational agents in selected tumor cell lines
The MDM2 inhibitor alrizomadlin, the Bcl-2/Bcl-xL inhibitor pelcitoclax, and the IAPs inhibitor dasminapant were evaluated both individually and in combination with standard of care and investigational anticancer small molecules within a complex spheroid model of solid tumors. . Complex spheroids include a stromal component modeled by human endothelial cells (HUVEC) and fibroblasts modeled by human mesenchymal stem cells (MSCs). The concentration ranges selected for each drug and investigational agent were based upon clinically achievable concentrations if the clinical Cmax of the agent was known.
Compounds. The drugs and investigational agents: alrizomadlin (APG-115; NSC831270), pelcitoclax (APG-1252; NSC835773), dasminapant (APG-1387;NSC834197), TAK-243 (NSC785004), copanlisib (NSC809693), olaparib (NSC753686), talazoparib (NSC767125), cobimetinib (NSC 768068), eltanexor (KPT-8602, NSC 794443), abemaciclib (NSC 768073), sotorasib (NSC818433), adagrasib (NSC 831453), MRTX-1133 (NSC 836407), Iadademestat (ORY1001, NSC 806812), and RMC-4630 (NSC839698), were obtained from the NCI Developmental Therapeutics Program Chemical Repository. The FDA-approved anticancer drug set is available from the Developmental Therapeutics Program at https://dtp.cancer.gov/organization/dscb/obtaining/available plates.htm. […] The stock solutions were prepared in dimethyl sulfoxide (DMSO, Sigma-Aldrich, St. Louis, MO, cat. D2650) at 800-fold the tested concentration and stored at -70 degrees C prior to their use. All drugs and investigational agents were tested over a range starting from a high concentration at or near the clinical Cmax and decreasing in half-log increments. If the clinical Cmax for an agent had not been determined, the highest concentration tested was 10 microM.
The patient-derived cancer (PDC) cell lines include five colon adenocarcinomas: 186277-243-T-J2-PDC, 616215-338-R-J1-PDC, 439559-082-T-J2-PDC, 463943-066-T-J2-PDC, and 519858-162-T-J1-PDC; three pancreatic carcinomas: 323965-272-R-J2-PDC, 521955-158-R6-J3-PDC, and 521955-158-R2-J5-PDC; two uterine sarcomas: 327498-152-R-J2-PDC and 993429-296-R-J1-PDC; two rhabdomyosarcomas: 755483-174-R-J1-PDC and 772245-204-R-J1-PDC; two soft tissue sarcomas: 126254-015-R-J1-PDC and 494315-158-R-J1-PDC; two malignant fibrous histiocytomas: 317291-083-R-J1-PDC and 596521-263-R-J1-PDC; two breast carcinomas: 171881-019-R-J1-PDC and 885512-296-R-J2-PDC; and one ovarian carcinoma: 6556581-035-R-J-PDC were obtained from the NCI PDMR, (https://pdmr.cancer.gov). The established cell lines HSSY-2 synovial sarcoma (RRID:CVCL 8719), SYO-1 synovial sarcoma (RRID:CVCL_7146), MPNST malignant peripheral neural sheath tumor were obtained from the Sloan Kettering Institute. The following established cell lines were purchased from the American Type Culture Collection (ATCC, Manassas, VA), Sor the received from the NCI repository:, PANC-1 pancreatic carcinoma (CRL-1469, RRID:CVCL_0480), OVCAR-5 ovarian carcinoma (RRID:CVCL_1628), OVCAR-8 ovarian carcinoma (RRID:CVCL_1629), , MCF-7 breast carcinoma (CRL-12584, RRID:CVCL_0031), MDA-MB-231 breast carcinoma (CRL-12532, RRID:CVCL_0062), NCI-H1876 small cell lung carcinoma (CRL-5902, RRID:CVCL_1503), NCI-H510A small cell lung carcinoma (HTB-184, RRID:CVCL_1565), NCI-H1417 (CRL-5869, RRID:CVCL_1469), and NCI-H196 small cell lung carcinoma (CRL-5823, RRID:CVCL_1509). Dr. Peter Houghton (Greehey Children's Cancer Research Institute, University of Texas Health Science Center, San Antonio, TX) provided Rh-18 rhabdomyosarcoma (RRID:CVCL_1659). Pooled donor human umbilical vein endothelial cells (HUVEC, Lonza, cat. CC-2519) and human mesenchymal stem cells (hMSC, Lonza, cat. PT-2501) were purchased from Lonza (Walkersville, MD).
Cell Culture. […]

[1] = second compound 0.03 µM, first compound 0.00316 µM
[2] = second compound 0.03 µM, first compound 0.01 µM
[3] = second compound 0.03 µM, first compound 0.0316 µM
[4] = second compound 0.03 µM, first compound 0.1 µM
[5] = second compound 0.03 µM, first compound 0.316 µM
[6] = second compound 0.03 µM, first compound 1 µM
[7] = second compound 0.0949 µM, first compound 0.00316 µM
[8] = second compound 0.0949 µM, first compound 0.01 µM
[9] = second compound 0.0949 µM, first compound 0.0316 µM
[10] = second compound 0.0949 µM, first compound 0.1 µM
[11] = second compound 0.0949 µM, first compound 0.316 µM
[12] = second compound 0.0949 µM, first compound 1 µM
[13] = second compound 0.3 µM, first compound 0.00316 µM
[14] = second compound 0.3 µM, first compound 0.01 µM
[15] = second compound 0.3 µM, first compound 0.0316 µM
[16] = second compound 0.3 µM, first compound 0.1 µM
[17] = second compound 0.3 µM, first compound 0.316 µM
[18] = second compound 0.3 µM, first compound 1 µM
[19] = second compound 0.949 µM, first compound 0.00316 µM
[20] = second compound 0.949 µM, first compound 0.01 µM
[21] = second compound 0.949 µM, first compound 0.0316 µM
[22] = second compound 0.949 µM, first compound 0.1 µM
[23] = second compound 0.949 µM, first compound 0.316 µM
[24] = second compound 0.949 µM, first compound 1 µM
[25] = second compound 3 µM, first compound 0.00316 µM
[26] = second compound 3 µM, first compound 0.01 µM
[27] = second compound 3 µM, first compound 0.0316 µM
[28] = second compound 3 µM, first compound 0.1 µM
[29] = second compound 3 µM, first compound 0.316 µM
[30] = second compound 3 µM, first compound 1 µM

Structure (SMILES): CCN1CCN(Cc2ccc(Nc3ncc(F)c(-c4cc(F)c5nc(C)n(C(C)C)c5c4)n3)nc2)CC1 + CCN1C(C(=O)NC23CCC(C(=O)O)(CC2)CC3)C(c2cccc(Cl)c2F)C2(C(=O)Nc3cc(Cl)ccc32)C12CCCCC2
- IC50 (second compound 0.03 µM): 83.5 nM
- IC50 (second compound 0.0949 µM): 16.8 nM
- IC50 (second compound 0.3 µM): < 3.16 nM
- IC50 (second compound 0.949 µM): < 3.16 nM
- IC50 (second compound 3 µM): < 3.16 nM
- viability, T/C [1]: 90.3%
- viability, T/C [2]: 72.4%
- viability, T/C [3]: 58.7%
- viability, T/C [4]: 49.1%
- viability, T/C [5]: 39.5%
- viability, T/C [6]: 22.7%
- viability, T/C [7]: 63%
- viability, T/C [8]: 57.5%
- viability, T/C [9]: 41.1%
- viability, T/C [10]: 34%
- viability, T/C [11]: 26.1%
- viability, T/C [12]: 12.1%
- viability, T/C [13]: 27.4%
- viability, T/C [14]: 22.6%
- viability, T/C [15]: 24.6%
- viability, T/C [16]: 19.2%
- viability, T/C [17]: 13.8%
- viability, T/C [18]: 5.79%
- viability, T/C [19]: 8.49%
- viability, T/C [20]: 8.58%
- viability, T/C [21]: 8.12%
- viability, T/C [22]: 6.47%
- viability, T/C [23]: 6.16%
- viability, T/C [24]: 3.21%
- viability, T/C [25]: 2.42%
- viability, T/C [26]: 2.83%
- viability, T/C [27]: 2.95%
- viability, T/C [28]: 2.31%
- viability, T/C [29]: 2.12%
- viability, T/C [30]: 4.53%

Structure (SMILES): O=C(c1ccc(F)c(F)c1Nc1ccc(I)cc1F)N1CC(O)([C@@H]2CCCCN2)C1 + CCN1C(C(=O)NC23CCC(C(=O)O)(CC2)CC3)C(c2cccc(Cl)c2F)C2(C(=O)Nc3cc(Cl)ccc32)C12CCCCC2
- IC50 (second compound 0.03 µM): 485 nM
- IC50 (second compound 0.0949 µM): 186 nM
- IC50 (second compound 0.3 µM): < 3.16 nM
- IC50 (second compound 0.949 µM): < 3.16 nM
- IC50 (second compound 3 µM): < 3.16 nM
- viability, T/C [1]: 101%
- viability, T/C [2]: 96.6%
- viability, T/C [3]: 77.7%
- viability, T/C [4]: 98.5%
- viability, T/C [5]: 66.7%
- viability, T/C [6]: 21.7%
- viability, T/C [7]: 66.7%
- viability, T/C [8]: 70.8%
- viability, T/C [9]: 67.9%
- viability, T/C [10]: 59.9%
- viability, T/C [11]: 41.2%
- viability, T/C [12]: 15.8%
- viability, T/C [13]: 30.3%
- viability, T/C [14]: 25.7%
- viability, T/C [15]: 34.2%
- viability, T/C [16]: 28.1%
- viability, T/C [17]: 24.2%
- viability, T/C [18]: 7.55%
- viability, T/C [19]: 6.94%
- viability, T/C [20]: 9.74%
- viability, T/C [21]: 7.24%
- viability, T/C [22]: 6.73%
- viability, T/C [23]: 5.75%
- viability, T/C [24]: 2.34%
- viability, T/C [25]: 2.22%
- viability, T/C [26]: 2.17%
- viability, T/C [27]: 2.09%
- viability, T/C [28]: 2.02%
- viability, T/C [29]: 1.16%
- viability, T/C [30]: 0.62%
